Reference: patent publication US8658668B2, “PI3 kinase/mTOR dual inhibitor” (Eli Lilly and Company, priority 2011, dated 2014)

Tests used:
Assay type in all cases: cell-based
[1] = tested on: BXF 1218 human tumor xenograft cells; assay: Oncotest tumor clonogenic assay, BXF 1218; conditions: colony formation, Bladder BXF 1218, transitional cell carcinoma, read-out: Absolute IC50
[2] = tested on: RXF 393 human tumor xenograft cells; assay: Oncotest tumor clonogenic assay, RXF 393; conditions: colony formation, Renal RXF 393, hypernephroid carcinoma, pd, read-out: Absolute IC50
[3] = tested on: MEXF 1539 human tumor xenograft cells; assay: Oncotest tumor clonogenic assay, MEXF 1539; conditions: colony formation, Melanoma MEXF 1539, amelanotic melanoma, md, read-out: Absolute IC50
H1975 = assay: Cell proliferation assay (CellTiter-Glo), H1975; conditions: Homo sapiens, NCI-H1975, 72 h
Procedure: Plate cells in a 96-well plate at 2000 cells/well in 100 μL of cell specific medium (for U87MG use DMEM, 10% FBS, 25 mM 4-(2-hydroxyethyl)-1-piperazineethanesulfonic acid (HEPES), 1.0 mM sodium pyruvate, and 0.1 mM Non Essential Amino Acids (ATCC Cat.#30-2002); for HT1080 use Eagle's MEM, 10% FBS (ATCC Cat.#30-2003); for H1975, A2780, SJSA-1 and 786-O use RPMI 1640, 10% FBS (ATCC Cat.#30-2001); for A204 use McCoy's 5A, 10% FBS (ATCC Cat.#30-2007) except in column 1 use medium only as the blank control. Incubate the plates overnight at 37° C. and 5% CO2. On the next day, prepare compound stocks at 1 mM in DMSO and serially dilute in DMSO in a 96-well round bottom polypropylene plate. Assay compounds at 10 concentrations in duplicate, 4 compounds per plate.
Transfer 4 μL of the DMSO serial dilutions to a 96 well plate and add 196 μL of culture medium to create a 10× stock for dosing. Gently transfer 11 μL of each dosing stock to the corresponding well of the cell plate resulting in a 0.2% DMSO concentration and a 111 μL final volume. […]
Prepared the CellTiter-Glo reagent (Promega, Cat: G7571) and add 100 µL to each well after the incubation is complete, homogenize the cells by mixing on an orbital shaker for 2 min and then incubate at RT for 10 min to allow the luminescent signal to stabilize. Record the luminescent raw data with a Wallac Victor V plate reader. […]

[4] = tested on: OVXF 899 human tumor xenograft cells; assay: Oncotest tumor clonogenic assay, OVXF 899; conditions: colony formation, Ovary OVXF 899, pap. serous adeno carcinoma, md, read-out: Absolute IC50
[5] = tested on: MEXF 462 human tumor xenograft cells; assay: Oncotest tumor clonogenic assay, MEXF 462; conditions: colony formation, Melanoma MEXF 462, amelanotic melanoma, md, read-out: Absolute IC50

For `CO[C@@H](C)Cn1c(=O)n(C)c2cnc3ccc(-c4cncc(C(C)(C)O)c4)cc3c21` [Example 1, 8-[5-(1-Hydroxy-1-methylethyl)pyridin-3-yl]-1-[(2S)-2-methoxypropyl]-3-methyl-1,3-dihydro-2H-imidazo[4,5-c]quinolin-2-one], the IC50 [1] was 0.048 µM, the IC50 [2] was 0.044 µM and the IC50 [3] was 0.246 µM. It also gave an IC50 (H1975) of 0.102 µM, an IC50 [4] of 0.59 µM and an IC50 [5] of 0.156 µM.
